“And” between values parts separate entries of the source, which are not always exact repeats. Equal entries are not always repeated.
Assays:
BiP NBD [1] = target: T1, BiP NBD (Homo sapiens, UniProt P11021); assay: Equilibrium 2D methyl-TROSY NMR fingerprint spectra with ligands (ATP analogs, calcium); assay type: binding; parameters: His6 (N, cleaved yes); made in house; host or cells: E. coli BL21-(DE3)-Lemo, pET28a vector; conditions: 3.3 mM calcium, 10 mM magnesium
Method: First, we probed calcium binding to ADP-bound NBD by NMR equilibrium experiments. […] (Supplementary Fig. 15d). […] (Supplementary Fig. 16).
AMPPNP (adenylyl imidodiphosphate; Jena-bioscience), AMPPCP (adenylyl methylenediphosphate; Jena-bioscience) and ATP-γ-S (adenosine 5’-(gamma-thiotriphosphate; Jena-bioscience) were dissolved in the HKM reaction buffer (25 mM HEPES, pH 7.5, 150 mM KCl and 10 mM MgCl2) at a concentration of 50 mM directly before to be mixed with the BiP NBD sample. Samples were prepared fresh before each use to minimize the known instability of these analogs that undergo slow hydrolysis in solution.
Supplementary Figure 7. Analysis of the BiP NBD ATP-bound state. a, Combined methyl chemical shift differences between the APD·Pi-bound and the ATP-bound state of BiP NBD in-cyclo. The magnitude of 1 and 1.5 SDs are indicated by an orange and a red line, respectively. b, Overlay of 9 crystal structures of BiP NBD in presence of different nucleotides (colored sticks). c, Backbone root means square deviation (RMSD - Å) between the structures shown in (b) and the NBD apo state (PDB 3LDN). d, 2D [13C,1H]-TROSY spectrum of methyl-labeled BiP NBD in equilibrium with the ATP analogs AMPPNP (green), AMPPCP (orange) or ATP-γ-S (yellow), overlayed with the spectrum in-cyclo (pink).
State- and sequence-specific resonance assignments are indicated for the ADP-bound (light blue), ADP·Pi-bound (dark blue) and the ATP-bound (red) states in-cyclo.
(1 picture or pasted object on this page, not shown here)
Supplementary Figure 15. Mapping of calcium binding to BiP NBD. a, Selected details from published structures of BiP. From left to right: yeast BiP(NBD)-Mg2+-ADP (PDB 3QFU), human BiP(NBD)-Mg2+- ADP·Pi (PDB 5EVZ), human BiP(NBD)-Ca2+-ADP (PDB 6ZYH). b, Selected sections of 2D [13C,1H]-methyl-TROSY spectra of residue val50cg1 or Ile52cd1 for the equilibrium experiments of NBD apo (grey), NBD with 5 mM Pi (green), NBD with 1 mM ADP (light blue), NBD with 1 mM ADP·Pi (dark blue), NBD with 1 mM ADP-Ca2+ (dark-pink).and NBD with 3.3 mM calcium ([Mg2+]/[Ca2+]=3) (light-pink). c, Combined methyl chemical shift differences between the BiP NBD APD and the ADP-Ca2+-bound state. The magnitude of 1 and 1.5 SDs are indicated by a light blue and a dark blue line. d, Structure of NBD in […]
the ADP-Ca-bound state (PDB 6ZYH).

BiP NBD [2] = target: T1, BiP NBD; assay: NMR without ATP regeneration at variable ADP:ATP ratio with 3.3 mM calcium, with and without E2; assay type: biochemical; parameters: His6 (N, cleaved yes); made in house; host or cells: E. coli BL21-(DE3)-Lemo, pET28a vector; conditions: replicates
From the text: Finally, we wanted to explore the effect of calcium on conditions with variable ADP concentration that represent the conditions in the ER. We thus exploited our modular experimental setup in the absence of the ATP regeneration system, with and without phosphate, to generate conditions where the ADP concentration increases (Supplementary Fig. 18). We determined the ATP hydrolysis rate and the populations of the different states for different ADP:ATP ratios and phosphate concentrations. We observed NMR signals corresponding to the NBD·ADP·Ca^2+-bound state, but not the NBD·Ca^2+-bound state, with population and occupancy time increasing with the ADP concentration (Fig. 5e). When free phosphate was allowed to accumulate in parallel, the occupancy time of the NBD·ADP·Ca^2+ state decreased, showing that the phosphate prevents the calcium from binding (Fig. 5f).
Supplementary Figure 18. NBD·ADP·Ca2+ forms as an off-cycle pathway state. a, 2D [13C,1H]-TROSY spectrum of methyl-labeled NBD in the presence of ADP:ATP 1:3, 3.3 mM calcium ([Mg2+]/[Ca2+]=3) and E2 active. State- and sequence-specific resonance assignments are indicated for the ADP·Ca2+- bound state (dark-pink), ADP-bound (light blue), ADP·Pi-bound (dark blue) and ATP-bound (red) states. b, Selected sections of 2D [13C,1H]-methyl-TROSY spectra of residue Val50cg1 in the presence of ADP:ATP 1:3 (pink) and with 3.3 mM calcium ([Mg2+]/[Ca2+]=3) (black) compared to in-cyclo no calcium (pink) and the equilibrium experiments of NBD with 3.3 mM calcium ([Mg2+]/[Ca2+]=3) (ligh-pink), NBD with 1 mM ADP and 3.3 mM calcium ([Mg2+]/[Ca2+]=3) (dark-pink). c,d, same as in (a,b) for the system in the absence of E2, i.e the phosphate concentration increases with ATP hydrolysis.

BiP = conditions: cited from earlier work

T1 sequence (P11021 19-406): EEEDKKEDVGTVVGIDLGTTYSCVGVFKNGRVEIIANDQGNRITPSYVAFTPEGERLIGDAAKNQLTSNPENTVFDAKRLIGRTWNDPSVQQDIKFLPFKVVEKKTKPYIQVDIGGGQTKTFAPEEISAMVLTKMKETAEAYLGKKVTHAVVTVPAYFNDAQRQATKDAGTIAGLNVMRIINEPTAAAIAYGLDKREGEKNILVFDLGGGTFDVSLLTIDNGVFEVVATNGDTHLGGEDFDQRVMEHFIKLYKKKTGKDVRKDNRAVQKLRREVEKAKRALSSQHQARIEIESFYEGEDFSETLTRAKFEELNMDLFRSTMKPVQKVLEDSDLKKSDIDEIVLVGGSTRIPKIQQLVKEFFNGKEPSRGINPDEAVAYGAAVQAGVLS

In the case of `[Ca+2]` [calcium], the “calcium binding to ADP-bound NBD (CSPs)” value (BiP NBD [1]) is reported as “calcium binding occurred”, the cycle (BiP NBD [2]; Fig 5e: with E2, 3.3 mM calcium, ADP:ATP 1:2) is reported as 151.31 s and 139.92 s and 133.95 s and the cycle (BiP NBD [2]; Fig 5e: with E2, 3.3 mM calcium, ADP:ATP 1:3) is reported as 107.58 s and 118.91 s and 122.37 s. The cycle (BiP NBD [2]; Fig 5e: with E2, 3.3 mM calcium, ADP:ATP 1:4) was 78.87 s and 92.84 s and 108.72 s, the cycle (BiP NBD [2]; Fig 5e: with E2, 3.3 mM calcium, ADP:ATP 1:5) was 55.19 s and 43.78 s and 57.90 s and the cycle (BiP NBD [2]; Fig 5f: without E2, 3.3 mM calcium, ADP:ATP 1:2) was 191.98 s and 221.37 s and 190.59 s. For the same compound, the cycle (BiP NBD [2]; Fig 5f: without E2, 3.3 mM calcium, ADP:ATP 1:3) was 130.46 s and 156.85 s and 135.76 s, the cycle (BiP NBD [2]; Fig 5f: without E2, 3.3 mM calcium, ADP:ATP 1:4) was 97.52 s and 113.75 s and 85.45 s and the cycle (BiP NBD [2]; Fig 5f: without E2, 3.3 mM calcium, ADP:ATP 1:5) was 72.26 s and 65.96 s and 73.59 s. The “increase of the MABA-ADP-bound lifetime” value (BiP; concentration-dependent) was “up to 4 fold” and the “decrease of the ATP hydrolysis rate of BiP” value (BiP; physiological calcium levels compared to no calcium) was 2 fold.
